# How the values were obtained:
# pepsin = target: T1, pepsin (Sus scrofa, UniProt P00791); assay: Gastrointestinal stability in simulated gastric fluid (SGF); format: in vitro ADME; settings: SGF pH 1.2, 5 μg/mL pepsin, 0.5 mg/mL teriparatide, 37 °C, 100 rpm; CD after release in PBS pH 7.4
# T1 construct: purchased Sigma-Aldrich Co. (St Louis, MO, USA)
# Experimental: (§1) The conformational integrity of teriparatide encapsulated within nanocomplexes was assessed under simulated gastrointestinal conditions using enzyme-supplemented media. Specifically, samples were incubated in simulated gastric fluid (SGF; pH 1.2, containing 5 μg/mL pepsin) or simulated intestinal fluid (SIF; pH 7.4, supplemented with 20 μg/mL trypsin). Nanoparticles corresponding to 0.5 mg/mL of teriparatide were dispersed in 1 mL of either SGF or SIF and incubated at 37 °C with stirring at 100 rpm. Digestion was quenched with 0.2 mL of 0.2 M NaOH (for SGF) or 0.1 M HCl (for SIF) at predefined times. The nanoparticles were then isolated via centrifugation, redispersed in PBS (pH 7.4), and incubated for 2 h. The conformation of teriparatide following its release from nanoparticles was analyzed by CD spectroscopy to verify structural stability.
# trypsin = assay: Gastrointestinal stability in simulated intestinal fluid (SIF); format: in vitro ADME; settings: SIF pH 7.4, 20 μg/mL trypsin, 0.5 mg/mL teriparatide, 37 °C, 100 rpm; CD after release in PBS pH 7.4
# Experimental: as §1
# [1] = test system: dexamethasone-induced osteoporosis rats; assay: Serum bone-turnover biomarkers in dexamethasone-induced osteoporosis rats; format: in vivo, rat; settings: 8 weeks daily, oral EE/AC-Teri 16 mg/kg or sc teriparatide 0.04 mg/kg, n = 6
# Experimental: The therapeutic effect of orally delivered EE/AC-Teri was examined in dexamethasone-induced osteoporosis rats under an Institutional Animal Care and Use committee (IACUC)-approved protocol (IACUC-2023-039-2). Male Sprague–Dawley rats (280–300 g) were randomly allocated to four groups (n = 6 each). The control group received a daily subcutaneous saline. In the osteoporotic model group, 0.1 mg/kg dexamethasone was administered subcutaneously each day to induce bone loss. The injectable teriparatide treatment group was given a combination of daily subcutaneous dexamethasone (0.1 mg/kg) and teriparatide (0.04 mg/kg). The final group was administered EE/AC-Teri orally (16 mg/kg of teriparatide), in combination with daily subcutaneous dexamethasone (0.1 mg/kg). After 8 week-treatment, blood was drawn for biochemical analysis. […] Serum osteocalcin (OCN), procollagen type I N-terminal propeptide (PINP), C-terminal telopeptide of type I collagen (CTx), tartrate-resistant acid phosphatase 5b (TRAP5b), and calcium were quantified with commercial ELISA kits (Thermo Fisher Scientific, Waltham, MA, USA) according to the manufacturer’s instructions. […] Quantitative parameters describing trabecular bone microarchitecture were assessed using Analyze software (ver 12.0; AnalyzeDirect, Overland Park, KS, USA).
# [2] = test system: dexamethasone-induced osteoporosis rats; assay: Micro-CT and histology of femora in dexamethasone-induced osteoporosis rats; format: in vivo, rat
# Experimental: The therapeutic effect of orally delivered EE/AC-Teri was examined in dexamethasone-induced osteoporosis rats under an Institutional Animal Care and Use committee (IACUC)-approved protocol (IACUC-2023-039-2). Male Sprague–Dawley rats (280–300 g) were randomly allocated to four groups (n = 6 each). The control group received a daily subcutaneous saline. In the osteoporotic model group, 0.1 mg/kg dexamethasone was administered subcutaneously each day to induce bone loss. The injectable teriparatide treatment group was given a combination of daily subcutaneous dexamethasone (0.1 mg/kg) and teriparatide (0.04 mg/kg). The final group was administered EE/AC-Teri orally (16 mg/kg of teriparatide), in combination with daily subcutaneous dexamethasone (0.1 mg/kg). After 8 week-treatment, blood was drawn for biochemical analysis. Blood (0.6 mL) was collected once on day 57 via the jugular vein under 1.5% isoflurane anesthesia in a Tabletop Anesthesia System (Harvard Apparatus, Cambridge, MA, USA). Serum osteocalcin (OCN), procollagen type I N-terminal propeptide (PINP), C-terminal telopeptide of type I collagen (CTx), tartrate-resistant acid phosphatase 5b (TRAP5b), and calcium were quantified with commercial ELISA kits (Thermo Fisher Scientific, Waltham, MA, USA) according to the manufacturer’s instructions. At study completion, animals were euthanized using a 30%/min displacement of chamber air with compressed CO2. Both femora were excised and fixed in 4% neutral-buffered formalin for 48 h. Fixed bones were processed for histological and structural analysis. Some samples were paraffin-embedded and sectioned for histological examination using hematoxylin and eosin (H&E) staining. The remaining specimens were subjected to structural evaluation via micro-computed tomography (micro-CT; the Korea Basic Science Institute). Images were acquired using a 90 kV/80 μA X-ray source over a 4 min acquisition time, with the scan field confined to 10 mm. Reconstructed images were generated at an isotropic voxel resolution of 20 μm. Quantitative parameters describing trabecular bone microarchitecture were assessed using Analyze software (ver 12.0; AnalyzeDirect, Overland Park, KS, USA).
# [3] = 8 weeks daily, oral EE/AC-Teri 16 mg/kg or sc teriparatide 0.04 mg/kg, dexamethasone rats, femur
# T1 sequence (P00791 60-385): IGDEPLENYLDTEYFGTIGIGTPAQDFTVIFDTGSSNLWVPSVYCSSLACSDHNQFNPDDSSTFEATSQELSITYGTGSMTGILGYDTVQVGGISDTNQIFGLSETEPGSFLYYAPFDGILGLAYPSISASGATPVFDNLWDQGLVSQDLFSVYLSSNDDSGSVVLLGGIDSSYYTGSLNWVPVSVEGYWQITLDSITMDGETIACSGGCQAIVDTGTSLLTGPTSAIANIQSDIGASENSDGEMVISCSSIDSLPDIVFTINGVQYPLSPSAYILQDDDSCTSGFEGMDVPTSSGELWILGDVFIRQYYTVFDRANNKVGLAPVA
smiles,measurement,setting,value
CC[C@H](C)[C@H](NC(=O)[C@H](CCC(=O)O)NC(=O)[C@H](CO)NC(=O)[C@@H](NC(=O)[C@@H](N)CO)C(C)C)C(=O)N[C@@H](CCC(N)=O)C(=O)N[C@@H](CC(C)C)C(=O)N[C@@H](CCSC)C(=O)N[C@@H](Cc1cnc[nH]1)C(=O)N[C@@H](CC(N)=O)C(=O)N[C@@H](CC(C)C)C(=O)NCC(=O)N[C@@H](CCCCN)C(=O)N[C@@H](Cc1cnc[nH]1)C(=O)N[C@@H](CC(C)C)C(=O)N[C@@H](CC(N)=O)C(=O)N[C@@H](CO)C(=O)N[C@@H](CCSC)C(=O)N[C@@H](CCC(=O)O)C(=O)N[C@@H](CCCN=C(N)N)C(=O)N[C@H](C(=O)N[C@@H](CCC(=O)O)C(=O)N[C@@H](Cc1c[nH]c2ccccc12)C(=O)N[C@@H](CC(C)C)C(=O)N[C@@H](CCCN=C(N)N)C(=O)N[C@@H](CCCCN)C(=O)N[C@@H](CCCCN)C(=O)N[C@@H](CC(C)C)C(=O)N[C@@H](CCC(N)=O)C(=O)N[C@@H](CC(=O)O)C(=O)N[C@H](C(=O)N[C@@H](Cc1cnc[nH]1)C(=O)N[C@@H](CC(N)=O)C(=O)N[C@@H](Cc1ccccc1)C(=O)O)C(C)C)C(C)C [teriparatide],Conformational integrity of teriparatide in SGF (CD spectra),pepsin,pronounced conformational alterations in both SGF and SIF
same,Conformational integrity of teriparatide in SIF (CD spectra),trypsin,pronounced conformational alterations in both SGF and SIF
same,Serum calcium / hypercalcemia,[1],did not produce sustained hypercalcemia
same,Trabecular architecture by histology (H&E),[2]; [3],partially restored architecture
same,Trabecular architecture by micro-CT imaging,[2]; [3],"mitigated these lesions, preserving a denser, interconnected trabecular network"
same,Bone mineral density (BMD),"[2]; micro-CT, 8 weeks, oral EE/AC-Teri 16 mg/kg or sc teriparatide 0.04 mg/kg, versus dexamethasone control, n = 6",significantly restored
same,Bone volume fraction (BV/TV),"[2]; micro-CT, 8 weeks, sc teriparatide 0.04 mg/kg, versus dexamethasone control, n = 6",significantly restored

# From PMC12655526, “Effective Oral Delivery of Teriparatide Using Organoclay—Polymethacrylate Nanocomposites for Osteoporosis Therapy” (Pharmaceutics, 2025)
